These results are taken from ChEMBL document CHEMBL5104103 (J Med Chem, 2022).

The target of data set [1] is T1, Tyrosine-protein kinase BTK (Homo sapiens, UniProt Q06187). The experiment in a line: Inhibition of BTK (unknown origin) using peptide substrate in presence of ATP by caliper electrophoresis method.
In data set [2] the target is T2, Tyrosine-protein kinase Tec (Homo sapiens, UniProt P42680).
T2 sequence (P42680 whole entry): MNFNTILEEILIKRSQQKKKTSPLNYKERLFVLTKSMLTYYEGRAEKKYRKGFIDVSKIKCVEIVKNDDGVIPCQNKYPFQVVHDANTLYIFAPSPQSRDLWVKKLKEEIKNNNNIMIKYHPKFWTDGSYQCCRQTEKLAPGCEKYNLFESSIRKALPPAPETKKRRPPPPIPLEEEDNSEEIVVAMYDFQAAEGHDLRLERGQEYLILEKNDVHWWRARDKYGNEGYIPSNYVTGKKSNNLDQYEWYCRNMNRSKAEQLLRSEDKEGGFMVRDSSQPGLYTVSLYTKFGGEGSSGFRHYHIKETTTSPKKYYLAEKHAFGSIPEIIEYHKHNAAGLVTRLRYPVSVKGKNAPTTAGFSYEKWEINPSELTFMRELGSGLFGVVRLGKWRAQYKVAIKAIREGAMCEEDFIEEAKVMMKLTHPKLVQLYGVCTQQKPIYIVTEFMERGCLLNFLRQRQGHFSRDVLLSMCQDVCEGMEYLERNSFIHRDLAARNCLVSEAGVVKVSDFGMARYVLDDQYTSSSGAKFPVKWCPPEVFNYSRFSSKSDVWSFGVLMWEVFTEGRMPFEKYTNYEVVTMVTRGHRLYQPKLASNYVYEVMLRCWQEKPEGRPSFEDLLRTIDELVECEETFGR
Nature of the data set: Inhibition of TEC (unknown origin) using peptide substrate in presence of ATP by caliper electrophoresis method.

The target of data set [3] is T3, Cytoplasmic tyrosine-protein kinase BMX (Homo sapiens, UniProt P51813).
T3 sequence (P51813 whole entry): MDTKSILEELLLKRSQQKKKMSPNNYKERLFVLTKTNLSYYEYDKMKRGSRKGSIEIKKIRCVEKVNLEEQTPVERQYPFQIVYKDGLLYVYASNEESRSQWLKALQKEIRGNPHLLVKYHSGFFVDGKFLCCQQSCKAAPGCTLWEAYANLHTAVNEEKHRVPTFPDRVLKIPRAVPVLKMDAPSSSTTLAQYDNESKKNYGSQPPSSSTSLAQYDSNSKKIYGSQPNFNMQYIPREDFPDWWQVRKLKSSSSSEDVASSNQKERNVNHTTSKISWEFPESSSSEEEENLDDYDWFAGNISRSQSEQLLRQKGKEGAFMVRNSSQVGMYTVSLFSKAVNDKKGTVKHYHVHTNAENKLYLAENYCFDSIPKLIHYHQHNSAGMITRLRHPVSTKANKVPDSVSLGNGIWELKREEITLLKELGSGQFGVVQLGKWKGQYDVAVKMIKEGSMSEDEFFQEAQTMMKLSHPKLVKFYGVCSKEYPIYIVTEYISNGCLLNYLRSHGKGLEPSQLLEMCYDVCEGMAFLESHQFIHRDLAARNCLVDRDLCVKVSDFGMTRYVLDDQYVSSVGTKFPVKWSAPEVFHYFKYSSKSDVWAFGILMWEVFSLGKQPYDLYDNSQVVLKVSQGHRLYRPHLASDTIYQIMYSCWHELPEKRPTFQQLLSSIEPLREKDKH
Nature of the data set: Inhibition of BMX (unknown origin) using peptide substrate in presence of ATP by caliper electrophoresis method.

The nature of data set [4]: Clearance in rat at 2 mg/kg, iv. Format: ADME, organism-based. The following applies: in vivo.
A short description of data set [5]: Cmax in rat at 20 mg/kg, po or 2 mg/kg, iv. The data set is classed as ADME, organism-based. The arrangement: dose 20 mg/kg, route po. The following applies: in vivo.
Data set [6] is described as follows: Permeability across basolateral to apical membrane in human Caco-2 cells. Format: ADME, cell-based. The settings on record: read-out: permeability. A general note: Passage across Caco-2 layers is used to estimate intestinal permeability.
For data set [7], the target named is T1, Tyrosine-protein kinase BTK. The experiment in a line: Inhibition of biotinylated-labeled BTK-selective probe binding to BTK in human Ramos assessed as target occupancy pretreated for 1 hr followed by probe addition measured for 18 hrs by AlphaScreen assay. Format: cell-based. In general terms: In Alpha technology, singlet oxygen from a donor bead excites a nearby acceptor bead.

Data set [8] has as its target Epidermal growth factor receptor (Homo sapiens, UniProt P00533). Nature of the data set: Inhibition of EGFR (unknown origin) using peptide substrate in presence of ATP by caliper electrophoresis method.
Data set [9] in a line: AUC in rat at 20 mg/kg, po or 2 mg/kg, iv. The data set is classed as ADME, organism-based. The arrangement: dose 20 mg/kg, route po. The settings on record: in vivo.
Data set [10] has as its target Receptor tyrosine-protein kinase erbB-2 (Homo sapiens, UniProt P04626). The experiment in a line: Inhibition of ERBB2 (unknown origin) using peptide substrate in presence of ATP by caliper electrophoresis method.
Data set [11] is described as follows: Clearance in human liver S9 fraction assessed as measuring per mg protein by LCMS/MS analysis. The following applies: read-out: CLH. Format: ADME, subcellular.
The target of data set [12] is Tyrosine-protein kinase Blk (Homo sapiens, UniProt P51451). The experiment in a line: Inhibition of BLK (unknown origin) using peptide substrate in presence of ATP by caliper electrophoresis method.
For data set [13], the target named is Adenosine receptor A3 (Homo sapiens) (UniProt P0DMS8). The experiment in a line: Displacement of [125I]AB-MECA from recombinant human Adenosine receptor A3 at 10 uM incubated for 120 mins by radiometric scintillation assay relative to control. (In general: Loss of bound radioactivity is the signal in a displacement assay; it reports binding, not function.)

Data set [14] in a line: Mutagenicity in Salmonella typhimurium by Ames test. Format: toxicity. The following applies: salmonella enterica subsp. enterica serovar typhimurium.
The target of data set [15] is T4, Tyrosine-protein kinase TXK (Homo sapiens) (UniProt P42681).
T4 sequence (whole entry): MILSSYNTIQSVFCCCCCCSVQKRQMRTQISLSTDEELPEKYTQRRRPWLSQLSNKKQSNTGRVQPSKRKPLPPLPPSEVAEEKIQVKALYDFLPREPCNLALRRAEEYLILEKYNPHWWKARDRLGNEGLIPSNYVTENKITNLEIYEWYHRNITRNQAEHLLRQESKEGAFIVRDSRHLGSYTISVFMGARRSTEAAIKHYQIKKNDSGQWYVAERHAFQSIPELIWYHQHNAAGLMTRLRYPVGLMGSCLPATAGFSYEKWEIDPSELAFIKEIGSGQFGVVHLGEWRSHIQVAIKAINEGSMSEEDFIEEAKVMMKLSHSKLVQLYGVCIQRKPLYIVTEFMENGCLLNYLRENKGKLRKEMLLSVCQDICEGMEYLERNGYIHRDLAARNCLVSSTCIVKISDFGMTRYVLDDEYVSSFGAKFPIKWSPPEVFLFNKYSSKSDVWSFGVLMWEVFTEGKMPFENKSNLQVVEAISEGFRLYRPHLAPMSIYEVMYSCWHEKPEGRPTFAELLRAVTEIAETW
Nature of the data set: Displacement of competitive tracer from RLK (unknown origin) assessed as target occupancy at […] preincubated for 15 mins measured for 24 hrs relative to control. The settings on record: dose 1.5 µM.

A short description of data set [16]: Toxicity in male Beagle dog assessed as drug tolerance up to 400 mg/kg/day qd for 12 weeks. The data set is classed as organism-based, Canis lupus familiaris. The following applies: in vivo, 2016 h.
Data set [17] in a line: Inhibition of IL-2 production in TCR-stimulated T-cells in human whole blood. The data set is classed as functional, tissue-based. The following applies: T-cell.
Data set [18] can be described thus: Clearance in rat liver S9 fraction assessed as measuring per mg protein. Format: ADME, subcellular. The settings on record: read-out: CLH.
Data set [19] can be described thus: Inhibition of NFAT activation in anti-CD3/anti-CD28-stimulated human Jurkat T cells. The data set is classed as cell-based.
For data set [20], the target named is T4, Tyrosine-protein kinase TXK (Homo sapiens). The experiment in a line: Displacement of competitive tracer from RLK (unknown origin) assessed as target occupancy at […] preincubated for 15 mins measured for 6 hrs relative to control. The settings on record: dose 1.5 µM.

Each structure is given as a SMILES string.

Receptor tyrosine-protein kinase erbB-2, sequence (P04626 whole entry): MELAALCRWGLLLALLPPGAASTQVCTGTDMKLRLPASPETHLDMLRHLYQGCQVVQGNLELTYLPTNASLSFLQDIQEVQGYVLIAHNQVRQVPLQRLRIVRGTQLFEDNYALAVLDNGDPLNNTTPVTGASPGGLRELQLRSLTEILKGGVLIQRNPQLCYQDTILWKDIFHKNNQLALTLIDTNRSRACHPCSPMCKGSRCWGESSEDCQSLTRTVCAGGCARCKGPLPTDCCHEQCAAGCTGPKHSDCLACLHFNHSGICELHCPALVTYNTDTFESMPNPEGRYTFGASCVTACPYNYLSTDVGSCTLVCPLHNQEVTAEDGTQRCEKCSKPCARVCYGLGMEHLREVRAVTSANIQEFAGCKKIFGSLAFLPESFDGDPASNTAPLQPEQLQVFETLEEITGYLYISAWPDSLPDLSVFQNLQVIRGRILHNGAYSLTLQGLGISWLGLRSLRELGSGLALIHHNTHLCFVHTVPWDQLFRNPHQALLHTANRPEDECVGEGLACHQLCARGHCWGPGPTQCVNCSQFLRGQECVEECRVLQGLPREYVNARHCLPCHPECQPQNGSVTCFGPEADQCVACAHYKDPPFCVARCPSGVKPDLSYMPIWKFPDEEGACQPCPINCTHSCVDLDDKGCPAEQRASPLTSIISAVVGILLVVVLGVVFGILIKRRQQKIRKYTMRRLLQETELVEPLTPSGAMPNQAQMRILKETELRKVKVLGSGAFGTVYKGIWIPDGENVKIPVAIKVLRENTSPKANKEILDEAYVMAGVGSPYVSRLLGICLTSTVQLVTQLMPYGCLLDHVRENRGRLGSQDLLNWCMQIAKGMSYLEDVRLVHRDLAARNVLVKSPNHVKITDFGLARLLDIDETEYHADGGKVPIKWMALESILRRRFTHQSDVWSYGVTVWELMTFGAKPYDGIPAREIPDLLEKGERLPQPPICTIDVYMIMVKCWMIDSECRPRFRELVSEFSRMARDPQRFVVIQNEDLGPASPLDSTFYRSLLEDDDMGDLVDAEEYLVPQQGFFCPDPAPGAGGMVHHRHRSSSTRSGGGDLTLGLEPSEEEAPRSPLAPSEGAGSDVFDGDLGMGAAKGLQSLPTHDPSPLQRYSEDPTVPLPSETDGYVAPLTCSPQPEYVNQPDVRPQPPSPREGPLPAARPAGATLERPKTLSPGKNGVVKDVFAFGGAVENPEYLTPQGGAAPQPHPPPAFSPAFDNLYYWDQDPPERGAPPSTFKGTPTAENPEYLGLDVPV
Epidermal growth factor receptor, sequence (P00533 whole entry): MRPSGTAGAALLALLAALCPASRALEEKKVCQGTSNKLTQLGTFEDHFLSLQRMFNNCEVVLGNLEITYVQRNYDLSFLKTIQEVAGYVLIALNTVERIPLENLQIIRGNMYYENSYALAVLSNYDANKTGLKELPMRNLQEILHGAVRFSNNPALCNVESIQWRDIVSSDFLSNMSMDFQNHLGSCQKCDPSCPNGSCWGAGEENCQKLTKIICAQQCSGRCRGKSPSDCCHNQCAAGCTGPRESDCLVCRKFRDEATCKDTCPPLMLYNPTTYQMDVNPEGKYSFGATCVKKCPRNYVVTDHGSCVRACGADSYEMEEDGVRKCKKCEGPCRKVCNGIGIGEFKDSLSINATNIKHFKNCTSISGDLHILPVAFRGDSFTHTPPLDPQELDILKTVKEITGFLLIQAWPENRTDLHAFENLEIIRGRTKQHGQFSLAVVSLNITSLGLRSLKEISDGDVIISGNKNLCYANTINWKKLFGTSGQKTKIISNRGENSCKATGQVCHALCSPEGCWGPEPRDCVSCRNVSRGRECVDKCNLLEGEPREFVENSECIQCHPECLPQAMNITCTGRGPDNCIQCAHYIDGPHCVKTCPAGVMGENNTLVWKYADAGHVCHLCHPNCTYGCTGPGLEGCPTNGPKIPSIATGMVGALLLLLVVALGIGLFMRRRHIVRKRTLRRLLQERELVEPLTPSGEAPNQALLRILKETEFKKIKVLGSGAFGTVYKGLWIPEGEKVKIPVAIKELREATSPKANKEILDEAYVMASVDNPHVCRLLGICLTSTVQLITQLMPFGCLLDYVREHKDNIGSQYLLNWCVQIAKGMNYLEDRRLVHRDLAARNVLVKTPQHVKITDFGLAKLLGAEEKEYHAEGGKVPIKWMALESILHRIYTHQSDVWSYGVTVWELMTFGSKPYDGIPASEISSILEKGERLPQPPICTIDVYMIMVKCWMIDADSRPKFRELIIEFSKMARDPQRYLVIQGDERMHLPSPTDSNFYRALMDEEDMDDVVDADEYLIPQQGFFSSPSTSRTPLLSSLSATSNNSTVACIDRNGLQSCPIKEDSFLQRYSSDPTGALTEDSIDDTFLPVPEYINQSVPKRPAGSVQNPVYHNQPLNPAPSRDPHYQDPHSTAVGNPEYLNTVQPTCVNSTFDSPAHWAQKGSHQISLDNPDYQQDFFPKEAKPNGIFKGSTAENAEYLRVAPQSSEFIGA
Tyrosine-protein kinase Blk, sequence (P51451 whole entry): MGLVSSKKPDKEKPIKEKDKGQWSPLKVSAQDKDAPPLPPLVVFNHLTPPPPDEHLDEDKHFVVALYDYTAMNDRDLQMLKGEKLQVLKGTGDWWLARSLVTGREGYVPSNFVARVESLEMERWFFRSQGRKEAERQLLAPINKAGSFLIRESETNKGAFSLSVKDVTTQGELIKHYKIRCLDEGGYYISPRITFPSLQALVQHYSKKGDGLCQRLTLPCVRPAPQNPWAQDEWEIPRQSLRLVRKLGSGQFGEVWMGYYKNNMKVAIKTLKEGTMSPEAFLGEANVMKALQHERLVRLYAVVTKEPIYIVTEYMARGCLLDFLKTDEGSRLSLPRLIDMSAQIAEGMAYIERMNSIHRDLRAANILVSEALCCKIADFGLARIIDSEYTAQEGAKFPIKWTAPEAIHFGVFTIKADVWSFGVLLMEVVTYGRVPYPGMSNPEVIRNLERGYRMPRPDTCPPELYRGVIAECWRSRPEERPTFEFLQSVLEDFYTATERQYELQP
T1 sequence (Q06187 whole entry): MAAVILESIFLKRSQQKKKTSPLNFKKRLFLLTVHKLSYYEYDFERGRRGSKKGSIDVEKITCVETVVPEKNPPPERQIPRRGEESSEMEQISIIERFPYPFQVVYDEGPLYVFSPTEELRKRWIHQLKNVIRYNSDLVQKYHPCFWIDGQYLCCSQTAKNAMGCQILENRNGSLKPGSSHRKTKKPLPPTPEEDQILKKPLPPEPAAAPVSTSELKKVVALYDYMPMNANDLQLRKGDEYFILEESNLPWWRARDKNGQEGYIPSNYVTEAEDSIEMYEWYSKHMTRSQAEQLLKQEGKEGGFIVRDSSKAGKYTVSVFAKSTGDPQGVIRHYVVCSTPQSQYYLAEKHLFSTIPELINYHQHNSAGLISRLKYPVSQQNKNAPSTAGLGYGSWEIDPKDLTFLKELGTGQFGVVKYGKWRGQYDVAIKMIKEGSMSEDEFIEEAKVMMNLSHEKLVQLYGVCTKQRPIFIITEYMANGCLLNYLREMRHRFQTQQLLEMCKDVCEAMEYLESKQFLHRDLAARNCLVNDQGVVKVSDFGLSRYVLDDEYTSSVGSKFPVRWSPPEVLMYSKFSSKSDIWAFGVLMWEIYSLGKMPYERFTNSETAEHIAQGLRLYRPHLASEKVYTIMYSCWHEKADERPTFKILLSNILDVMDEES
Adenosine receptor A3 (Homo sapiens), sequence (P0DMS8 whole entry): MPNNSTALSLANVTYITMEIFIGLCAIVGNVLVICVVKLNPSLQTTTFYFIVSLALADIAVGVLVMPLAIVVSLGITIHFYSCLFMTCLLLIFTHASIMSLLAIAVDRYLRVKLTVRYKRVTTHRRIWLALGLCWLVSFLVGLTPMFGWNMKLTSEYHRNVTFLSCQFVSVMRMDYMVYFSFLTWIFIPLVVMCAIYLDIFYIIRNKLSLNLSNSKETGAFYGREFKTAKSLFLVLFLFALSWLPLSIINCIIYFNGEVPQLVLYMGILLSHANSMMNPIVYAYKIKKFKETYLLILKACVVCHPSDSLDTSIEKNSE

For `CC(C)(/C=C(/C#N)C(=O)N1CCC[C@@H]1Cn1nc(-c2ccc(Oc3ccccc3)cc2F)c2c(N)ncnc21)N1CCOCC1`, the half-inhibitory concentration (IC50) is 72 nM in data set [1]; 4.5 nM in data set [2]; 10.1 nM in data set [3]; 35.9 nM in [7]; 3000 nM in data set [8]; above 5000 nM in data set [10]. For the same molecule, the half-maximal inhibitory concentration (IC50) in data set [12] turned out to be 92 nM. This molecule showed a clearance in data set [4] of 120 mL/min/kg. Besides, the concentration in [5] peaked (Cmax) at 406 ng/mL. For the same molecule, in data set [6], the Papp B→A was 16.5 ×10⁻⁶ cm/s. The exposure (AUC) in data set [9] (read-out: AUC) came to 478 ng·h/mL. For the same molecule, in data set [11], the microsomal CLint worked out at 152 µL/min/mg.

Take `CC(C)(C)/C=C(\C#N)C(=O)N1CCC[C@@H](n2nc(-c3ccc(Oc4ccccc4)cc3F)c3c(N)ncnc32)C1` [ATUZABRUTINIB]: the inhibition in [13] is above 50%. Further, the IC50 stood at 1.8 nM in data set [1]; 1.9 nM in data set [2]; 1.8 nM in [3]; 30.1 nM in data set [7]; 368 nM in data set [8]; 1080 nM in [10]. Also, the values for the IC50 in data set [17], in data set [19] and in data set [12] were above 5000 nM, 2100 nM and 2.2 nM, respectively. The same molecule showed a Cmax in data set [5] of 326 ng/mL. In addition, the Papp B→A in data set [6] was 0.6 ×10⁻⁶ cm/s. Further, the Activity entry in data set [14] was “Non-Toxic”; in data set [15], 85%; in [16], “Non-Toxic”; in [20], 86%. Further, the exposure (AUC) in [9] is 1071 ng·h/mL. Moreover, the microsomal CLint is 77 µL/min/mg in [11] and 54 µL/min/mg in [18].

As for `CN1CCN(C(C)(C)/C=C(\C#N)C(=O)N2CCC[C@@H](n3nc(-c4ccc(Oc5ccccc5)cc4F)c4c(N)ncnc43)C2)CC1`, the IC50 in [2] was found to be 0.5 nM; in data set [3], 0.6 nM; in [8] it was 980 nM; in data set [10] it was 4350 nM; in data set [12], 0.5 nM. This molecule came in with a clearance in data set [4] of 119 mL/min/kg. For the same molecule, the highest level in [5] (Cmax) was 96.5 ng/mL. The Papp B→A in data set [6] stood at 13.5 ×10⁻⁶ cm/s. Further, the AUC in data set [9] (read-out: AUC) was 568 ng·h/mL. In data set [11], the microsomal CLint was found to be 30 µL/min/mg.

The term IC50 denotes the concentration that gives 50% inhibition. A word on the clearance: it is a measure of how efficiently the substance is removed, as volume per time. Read a high clearance as efficient removal. Broadly, the Cmax is the highest concentration seen after dosing. The AUC is the area under the concentration-time curve, a measure of exposure. The term inhibition denotes the change of the read-out against control, counted positive when it falls.
